Assay results reported in ChEMBL document CHEMBL5465560, “Selectivity Literature for EUbOPEN Chemogenomic Library” (2024).

Columns and labels:
[1] = molecular target: Wee1-like protein kinase (Homo sapiens) (UniProt P30291); assay: Selectivity interaction (KinomeScan (DiscoverX)) EUB0000229b WEE1; details: at 10 µM
[2] = molecular target: Glycogen synthase kinase-3 beta (Homo sapiens, UniProt P49841); assay: Selectivity interaction (KinomeScan (DiscoverX)) EUB0000229b GSK3B; details: at 10 µM
[3] = system: Tyrosine-protein kinase ABL1 (Homo sapiens), P00519 [H396P]; assay: (§1) Selectivity interaction (KinomeScan (DiscoverX)) EUB0000229b ABL1; details: at 1 µM
[4] = system: Tyrosine-protein kinase ABL1 (Homo sapiens), P00519 [E255K]; assay: as §1; details: at 1 µM
[5] = molecular target: Serine/threonine-protein kinase PLK3 (Homo sapiens, UniProt Q9H4B4); assay: Selectivity interaction (KinomeScan (DiscoverX)) EUB0000695a PLK3; details: at 100 nM
Serine/threonine-protein kinase PLK3, sequence (Q9H4B4 whole entry, looked up, the tested form may be a part): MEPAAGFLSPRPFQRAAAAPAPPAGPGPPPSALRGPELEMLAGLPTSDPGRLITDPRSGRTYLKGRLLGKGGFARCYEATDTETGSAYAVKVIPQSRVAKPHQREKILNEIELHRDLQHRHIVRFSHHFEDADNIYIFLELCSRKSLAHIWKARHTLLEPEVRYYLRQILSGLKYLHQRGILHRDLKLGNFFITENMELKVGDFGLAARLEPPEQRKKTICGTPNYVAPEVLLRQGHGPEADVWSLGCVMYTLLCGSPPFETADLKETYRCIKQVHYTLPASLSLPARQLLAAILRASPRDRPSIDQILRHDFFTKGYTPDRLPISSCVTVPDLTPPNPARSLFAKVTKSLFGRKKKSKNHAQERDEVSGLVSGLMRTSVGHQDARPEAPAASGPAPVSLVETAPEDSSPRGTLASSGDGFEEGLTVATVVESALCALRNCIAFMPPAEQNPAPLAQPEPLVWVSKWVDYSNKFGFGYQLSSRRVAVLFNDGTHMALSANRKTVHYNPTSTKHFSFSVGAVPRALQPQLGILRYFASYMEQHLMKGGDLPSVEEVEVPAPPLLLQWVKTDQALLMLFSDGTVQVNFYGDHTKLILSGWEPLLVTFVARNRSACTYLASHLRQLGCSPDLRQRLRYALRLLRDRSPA

[6] = molecular target: T1, Ankyrin repeat and protein kinase domain-containing protein 1 (Homo sapiens) (UniProt Q8NFD2); assay: Selectivity interaction (KinomeScan (DiscoverX)) EUB0001079a ANKK1; details: at 1 µM
T1 sequence (whole entry): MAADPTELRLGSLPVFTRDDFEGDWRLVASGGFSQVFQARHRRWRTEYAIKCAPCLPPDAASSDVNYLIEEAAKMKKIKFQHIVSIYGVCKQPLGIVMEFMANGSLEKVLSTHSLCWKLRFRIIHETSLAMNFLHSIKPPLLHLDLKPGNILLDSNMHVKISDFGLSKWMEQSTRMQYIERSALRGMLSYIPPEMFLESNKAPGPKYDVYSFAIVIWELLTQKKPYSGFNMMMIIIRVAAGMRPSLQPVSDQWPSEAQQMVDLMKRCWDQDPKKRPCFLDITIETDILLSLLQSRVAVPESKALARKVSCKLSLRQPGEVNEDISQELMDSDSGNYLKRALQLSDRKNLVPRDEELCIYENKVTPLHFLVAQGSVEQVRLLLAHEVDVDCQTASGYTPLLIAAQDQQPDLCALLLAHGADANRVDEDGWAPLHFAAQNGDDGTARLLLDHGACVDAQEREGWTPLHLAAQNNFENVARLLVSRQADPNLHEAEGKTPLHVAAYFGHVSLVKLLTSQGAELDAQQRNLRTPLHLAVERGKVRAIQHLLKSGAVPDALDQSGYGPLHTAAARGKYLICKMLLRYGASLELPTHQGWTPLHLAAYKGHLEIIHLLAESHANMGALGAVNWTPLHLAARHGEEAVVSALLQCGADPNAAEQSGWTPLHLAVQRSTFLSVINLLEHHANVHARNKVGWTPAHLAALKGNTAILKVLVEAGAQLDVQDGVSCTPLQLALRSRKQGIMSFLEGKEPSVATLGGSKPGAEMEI

[7] = molecular target: Rho-associated protein kinase 1 (Homo sapiens) (UniProt Q13464); assay: Selectivity interaction (KinomeScan (DiscoverX)) EUB0001079a ROCK1; details: at 1 µM
[8] = molecular target: T2, Serine/threonine-protein kinase LATS2 (Homo sapiens) (UniProt Q9NRM7); assay: Selectivity interaction (LanthaScreen Eu Kinase Binding Assay) EUB0001632a LATS2; details: at 10 µM
T2 sequence (whole entry): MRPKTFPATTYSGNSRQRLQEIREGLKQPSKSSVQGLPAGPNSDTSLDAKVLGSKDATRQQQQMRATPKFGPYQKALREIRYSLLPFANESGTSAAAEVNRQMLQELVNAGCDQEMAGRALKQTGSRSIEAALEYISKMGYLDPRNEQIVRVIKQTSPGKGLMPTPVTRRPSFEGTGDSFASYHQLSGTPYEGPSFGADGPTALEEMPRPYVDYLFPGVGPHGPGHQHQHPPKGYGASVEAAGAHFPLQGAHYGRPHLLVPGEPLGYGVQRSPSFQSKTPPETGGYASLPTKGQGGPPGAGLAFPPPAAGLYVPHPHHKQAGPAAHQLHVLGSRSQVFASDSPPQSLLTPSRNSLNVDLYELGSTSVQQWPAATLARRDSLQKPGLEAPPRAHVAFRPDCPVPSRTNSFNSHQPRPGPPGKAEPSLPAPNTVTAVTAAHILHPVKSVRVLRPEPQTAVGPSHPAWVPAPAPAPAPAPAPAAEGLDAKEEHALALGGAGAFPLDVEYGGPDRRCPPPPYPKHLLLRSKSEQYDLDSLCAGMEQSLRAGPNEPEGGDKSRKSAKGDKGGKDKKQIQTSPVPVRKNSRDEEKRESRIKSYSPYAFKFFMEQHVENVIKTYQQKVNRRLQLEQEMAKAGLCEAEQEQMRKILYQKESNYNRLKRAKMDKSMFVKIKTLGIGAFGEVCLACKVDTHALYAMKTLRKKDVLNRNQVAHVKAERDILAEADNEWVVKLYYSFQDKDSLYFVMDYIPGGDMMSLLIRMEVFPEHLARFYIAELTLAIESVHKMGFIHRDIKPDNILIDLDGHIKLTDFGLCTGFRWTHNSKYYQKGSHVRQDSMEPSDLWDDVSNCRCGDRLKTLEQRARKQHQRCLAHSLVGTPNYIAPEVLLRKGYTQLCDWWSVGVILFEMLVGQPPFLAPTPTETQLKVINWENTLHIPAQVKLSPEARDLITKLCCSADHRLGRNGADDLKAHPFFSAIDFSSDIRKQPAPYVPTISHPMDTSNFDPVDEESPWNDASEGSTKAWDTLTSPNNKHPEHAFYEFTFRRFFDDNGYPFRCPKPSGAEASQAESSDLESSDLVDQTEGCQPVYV

[9] = molecular target: Receptor-interacting serine/threonine-protein kinase 2 (Homo sapiens, UniProt O43353); assay: Selectivity interaction (LanthaScreen Eu Kinase Binding Assay) EUB0001632a RIPK2; details: at 10 µM
Receptor-interacting serine/threonine-protein kinase 2, sequence (O43353 whole entry): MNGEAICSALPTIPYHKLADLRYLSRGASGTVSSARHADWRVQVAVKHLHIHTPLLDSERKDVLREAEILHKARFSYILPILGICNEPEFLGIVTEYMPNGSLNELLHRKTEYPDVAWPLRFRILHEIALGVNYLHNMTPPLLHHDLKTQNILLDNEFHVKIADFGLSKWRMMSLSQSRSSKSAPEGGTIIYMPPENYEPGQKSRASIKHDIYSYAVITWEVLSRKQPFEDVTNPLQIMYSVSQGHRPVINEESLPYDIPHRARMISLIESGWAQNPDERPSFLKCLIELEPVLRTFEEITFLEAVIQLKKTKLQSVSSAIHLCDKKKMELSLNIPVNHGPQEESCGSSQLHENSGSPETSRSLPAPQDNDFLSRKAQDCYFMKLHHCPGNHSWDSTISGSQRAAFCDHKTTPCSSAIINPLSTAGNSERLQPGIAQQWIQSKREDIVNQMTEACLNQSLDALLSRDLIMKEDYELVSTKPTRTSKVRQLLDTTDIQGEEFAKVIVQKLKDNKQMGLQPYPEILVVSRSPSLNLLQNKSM

[10] = molecular target: Mitogen-activated protein kinase kinase kinase 1 (Homo sapiens, UniProt Q13233); details: at 10 µM
[11] = molecular target: Mitogen-activated protein kinase 11 (Homo sapiens) (UniProt Q15759); details: at 10 µM
Mitogen-activated protein kinase 11 (Homo sapiens), sequence (Q15759 whole entry): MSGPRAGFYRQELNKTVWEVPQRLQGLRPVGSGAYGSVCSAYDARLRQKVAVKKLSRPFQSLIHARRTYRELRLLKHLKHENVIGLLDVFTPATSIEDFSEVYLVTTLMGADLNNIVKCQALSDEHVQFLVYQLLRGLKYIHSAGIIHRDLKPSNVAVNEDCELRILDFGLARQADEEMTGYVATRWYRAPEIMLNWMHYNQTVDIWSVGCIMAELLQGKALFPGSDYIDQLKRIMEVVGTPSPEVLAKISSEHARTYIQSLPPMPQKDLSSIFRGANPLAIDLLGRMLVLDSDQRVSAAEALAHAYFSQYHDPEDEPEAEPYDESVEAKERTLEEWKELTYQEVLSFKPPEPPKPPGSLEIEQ

[12] = molecular target: Tyrosine-protein kinase Yes (Homo sapiens) (UniProt P07947); assay: Selectivity interaction (ProQinase) EUB0000171b YES1
Tyrosine-protein kinase Yes (Homo sapiens), sequence (P07947 2-543 limits assumed): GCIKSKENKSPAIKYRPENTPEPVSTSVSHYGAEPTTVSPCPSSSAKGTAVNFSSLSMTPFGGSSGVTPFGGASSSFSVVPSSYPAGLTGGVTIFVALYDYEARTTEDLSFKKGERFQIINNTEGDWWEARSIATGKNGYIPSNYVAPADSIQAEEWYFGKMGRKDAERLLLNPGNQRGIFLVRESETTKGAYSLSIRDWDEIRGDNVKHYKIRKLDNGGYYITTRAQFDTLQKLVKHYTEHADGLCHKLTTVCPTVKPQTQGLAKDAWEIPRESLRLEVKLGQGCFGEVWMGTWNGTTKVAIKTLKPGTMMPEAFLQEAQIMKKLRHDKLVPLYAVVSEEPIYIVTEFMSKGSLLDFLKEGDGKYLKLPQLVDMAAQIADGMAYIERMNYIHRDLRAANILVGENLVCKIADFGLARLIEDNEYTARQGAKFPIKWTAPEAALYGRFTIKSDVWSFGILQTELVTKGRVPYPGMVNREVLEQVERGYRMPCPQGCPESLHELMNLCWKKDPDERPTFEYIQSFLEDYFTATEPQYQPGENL

[13] = molecular target: Calcium/calmodulin-dependent protein kinase type II subunit gamma (Homo sapiens) (UniProt Q13555); assay: Selectivity interaction (ActivX KiNativ screen (ex vivo kinase selectivity in human PBMCs)) EUB0001619a CAMK2G; assay type: cell-based; details: PBMC, at 1 µM
Calcium/calmodulin-dependent protein kinase type II subunit gamma (Homo sapiens), sequence (Q13555 whole entry): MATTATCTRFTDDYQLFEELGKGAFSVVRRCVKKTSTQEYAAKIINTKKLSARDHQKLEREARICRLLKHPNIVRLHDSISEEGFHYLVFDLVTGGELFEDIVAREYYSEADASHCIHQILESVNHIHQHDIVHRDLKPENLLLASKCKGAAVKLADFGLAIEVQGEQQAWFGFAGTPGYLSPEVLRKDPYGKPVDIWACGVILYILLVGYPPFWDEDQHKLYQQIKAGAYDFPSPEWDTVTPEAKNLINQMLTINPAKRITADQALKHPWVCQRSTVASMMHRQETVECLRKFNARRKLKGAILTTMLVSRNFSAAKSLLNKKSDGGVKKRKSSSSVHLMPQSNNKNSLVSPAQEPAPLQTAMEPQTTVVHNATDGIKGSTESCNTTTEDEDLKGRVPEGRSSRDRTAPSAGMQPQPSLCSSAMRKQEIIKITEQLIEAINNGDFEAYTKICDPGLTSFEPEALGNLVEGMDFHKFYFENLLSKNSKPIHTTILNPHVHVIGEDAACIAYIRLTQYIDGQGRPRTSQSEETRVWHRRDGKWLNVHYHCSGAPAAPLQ

[14] = molecular target: Mitogen-activated protein kinase 9 (Homo sapiens, UniProt P45984); assay: Selectivity interaction (Enzymatic assay) EUB0001199aCl MAPK9
Mitogen-activated protein kinase 9, sequence (P45984 whole entry): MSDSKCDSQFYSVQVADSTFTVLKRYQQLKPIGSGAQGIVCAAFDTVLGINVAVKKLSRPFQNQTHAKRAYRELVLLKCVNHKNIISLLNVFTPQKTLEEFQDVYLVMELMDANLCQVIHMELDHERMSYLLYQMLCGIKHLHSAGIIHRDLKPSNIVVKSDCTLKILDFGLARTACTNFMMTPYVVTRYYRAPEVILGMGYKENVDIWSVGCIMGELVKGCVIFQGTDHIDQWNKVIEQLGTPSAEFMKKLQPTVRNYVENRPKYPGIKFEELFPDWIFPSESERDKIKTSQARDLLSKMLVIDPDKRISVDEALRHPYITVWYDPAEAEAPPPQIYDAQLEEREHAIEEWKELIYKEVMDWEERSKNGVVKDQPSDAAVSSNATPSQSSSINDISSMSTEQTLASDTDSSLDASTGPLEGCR

[15] = system: Epidermal growth factor receptor (Homo sapiens), P00533 [UNDEFINED MUTATION]; assay: Selectivity interaction (KinomeScan (DiscoverX)) EUB0000607a EGFR; details: at 10 µM
[16] = molecular target: Serine/threonine-protein kinase SIK2 (Homo sapiens) (UniProt Q9H0K1); assay: Selectivity interaction (KinomeScan (DiscoverX)) EUB0000655a SIK2; details: at 10 µM
[17] = molecular target: Cyclin-dependent kinase 16 (Homo sapiens) (UniProt Q00536); assay: Selectivity interaction (Ambit KINOMEscan and KiNATiv profiling in Jurkat cells) EUB0000090b CDK16; assay type: cell-based; details: at 1 µM
Cyclin-dependent kinase 16 (Homo sapiens), sequence (Q00536 whole entry): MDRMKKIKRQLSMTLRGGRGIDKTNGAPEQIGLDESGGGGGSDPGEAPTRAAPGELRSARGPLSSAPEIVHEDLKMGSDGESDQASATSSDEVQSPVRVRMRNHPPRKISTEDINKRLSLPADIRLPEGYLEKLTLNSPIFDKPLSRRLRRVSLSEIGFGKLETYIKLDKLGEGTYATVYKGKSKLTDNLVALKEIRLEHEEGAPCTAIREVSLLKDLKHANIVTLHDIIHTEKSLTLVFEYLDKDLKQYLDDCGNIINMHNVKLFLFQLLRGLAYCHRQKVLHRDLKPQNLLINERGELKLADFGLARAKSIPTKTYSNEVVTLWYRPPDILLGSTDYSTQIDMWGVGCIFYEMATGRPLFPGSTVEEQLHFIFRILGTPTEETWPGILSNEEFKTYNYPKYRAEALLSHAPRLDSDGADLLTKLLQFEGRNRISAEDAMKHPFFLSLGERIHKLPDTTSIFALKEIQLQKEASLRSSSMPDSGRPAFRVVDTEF

Glycogen synthase kinase-3 beta, sequence (P49841 whole entry, looked up): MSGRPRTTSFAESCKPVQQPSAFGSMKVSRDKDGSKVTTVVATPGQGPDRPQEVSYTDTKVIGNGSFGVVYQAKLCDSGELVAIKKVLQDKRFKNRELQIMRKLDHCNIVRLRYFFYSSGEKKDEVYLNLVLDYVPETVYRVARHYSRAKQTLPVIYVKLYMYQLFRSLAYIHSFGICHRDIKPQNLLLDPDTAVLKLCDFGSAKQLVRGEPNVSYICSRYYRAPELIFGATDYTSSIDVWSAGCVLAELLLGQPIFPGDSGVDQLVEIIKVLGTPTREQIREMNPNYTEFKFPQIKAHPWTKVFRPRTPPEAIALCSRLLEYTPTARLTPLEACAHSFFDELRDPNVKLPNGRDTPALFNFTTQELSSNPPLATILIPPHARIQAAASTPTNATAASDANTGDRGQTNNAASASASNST
Wee1-like protein kinase (Homo sapiens), sequence (P30291 whole entry, looked up): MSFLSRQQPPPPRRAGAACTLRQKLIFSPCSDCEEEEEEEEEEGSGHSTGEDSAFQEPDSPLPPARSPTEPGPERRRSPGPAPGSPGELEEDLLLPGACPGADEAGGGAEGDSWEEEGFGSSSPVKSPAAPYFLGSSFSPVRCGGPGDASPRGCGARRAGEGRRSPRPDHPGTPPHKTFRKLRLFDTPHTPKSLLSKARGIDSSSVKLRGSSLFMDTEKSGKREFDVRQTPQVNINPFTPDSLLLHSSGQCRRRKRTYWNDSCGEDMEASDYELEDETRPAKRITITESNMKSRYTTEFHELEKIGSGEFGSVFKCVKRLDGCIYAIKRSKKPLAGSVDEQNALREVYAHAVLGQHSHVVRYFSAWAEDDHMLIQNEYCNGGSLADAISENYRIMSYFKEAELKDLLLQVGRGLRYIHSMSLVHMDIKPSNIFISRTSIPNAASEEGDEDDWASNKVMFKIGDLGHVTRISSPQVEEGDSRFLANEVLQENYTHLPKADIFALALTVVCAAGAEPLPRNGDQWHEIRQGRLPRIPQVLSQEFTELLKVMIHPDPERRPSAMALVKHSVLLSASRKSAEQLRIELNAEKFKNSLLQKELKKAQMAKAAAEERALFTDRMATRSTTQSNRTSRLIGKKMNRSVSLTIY

`COc1cc(N(C)c2ccnc3ccc(C(F)(F)F)cc23)cc(OC)c1OC` gave a % binding [1] of 91%, a % binding [2] of 81% and a % binding [3] of 41%. The % binding [4] was 90%.
Work on `Cc1cc(F)c(C(=O)Nc2cccc(-c3nncn3C(C)C)n2)cc1-n1cnc(C2CC2)c1` yielded a % of control [5] of 100%.
Compound `Nc1cnc(N2CCc3cc(S(=O)(=O)Nc4c(F)cc(Cl)cc4F)cc(N4CCCC4=O)c32)nc1` [TP-020n] has a % of control [6] of 100% and a % of control [7] of 96%.
`Cn1cc(-n2cnc3c(NCc4nc5cc(Cl)c(Cl)cc5[nH]4)nc(N4CCOCC4)nc32)cn1` gave a % of inhibition [8] of 1.75% and a % of inhibition [9] of -13.3%.
`Cc1cc([C@@H](C)Nc2ccccc2C(=O)O)c2nc(N3CCOCC3)cc(=O)n2c1` [AZD-6482] showed a % of control [10] of 90% and a % of control [11] of 91%.
`C=CC(=O)Nc1cccc(C(=O)Nc2ccc(Nc3cc(-c4[nH]c(SC)nc4C)ccn3)cc2)c1` gave a % of control ([12]; at 1 µM) of 89% and a % of control ([12]; at 5 µM) of 75%.
`N#Cc1cccc(-c2c[nH]c3ncnc(N4CCOCC4)c23)c1` gave a % of inhibition [13] of 10%.
`CN1Cc2nccc(-c3cn(C)nc3-c3ccc(F)cc3)c2C1=O` was tested, and the IC50 [14] was 4.95 µM.
With `CNC(=O)Nc1ccc(-c2nc(N3CC4CCC(C3)O4)c3cnn(C4CCC5(CC4)OCCO5)c3n2)cc1` the % of control [15] was 52%.
Compound `CN(C)CCOc1ccc(-c2nc(-c3ccncc3)c(-c3ccc4c(c3)CC/C4=N\O)[nH]2)cc1` has a % of control [16] of 91%.
With `CN(C)C/C=C/C(=O)Nc1ccc(C(=O)N2CCCC(Nc3ncc(Cl)c(-c4c[nH]c5ccccc45)n3)C2)cc1` (stereo not drawn) the % of control [17] was 68%.
